From patent publication US8163745B2, “HIV inhibiting 5-(hydroxymethylene and aminomethylene) substituted pyrimidines” (Tibotec Pharmaceuticals Ltd., priority 2006, dated 2012) come the findings set out here.

Read-outs that look alike come from different tables or passages of the source.

The subject of one data set is HIV mutant strain Y181C. Kind of data set: microbe, parasite or virus in culture. Type of data set: cell-based, HIV-1. As to conditions: MT4 LTR-EGFP cells, measured three days after infection; for EC50: Human immunodeficiency virus 1, 72 h, read-out: Y181C (pEC50), strain Y181C (converted); for Y181C (pEC50): strain Y181C. The method, then: (§1) The antiviral activity of the compound of the present invention has been evaluated in the presence of wild type HIV and HIV mutants bearing mutations at the reverse transcriptase gene. The activity of the compounds is evaluated using a cellular assay which was performed according to the following procedure.
(§2) The human T-cell line MT4 is engineered with Green Fluorescent Protein (GFP) and an HIV-specific promoter, HIV-1 long terminal repeat (LTR). This cell line is designated MT4 LTR-EGFP, and can be used for the in vitro evaluation of anti-HIV activity of investigational compounds. In HIV-1 infected cells, the Tat protein is produced which upregulates the LTR promotor and finally leads to stimulation of the GFP reporter production, allowing to measure ongoing HIV-infection fluorometrically.
(§3) Effective concentration values such as 50% effective concentration (EC50) can be determined and are usually expressed in μM. An EC50 value is defined as the concentration of test compound that reduces the fluorescence of HIV-infected cells by 50%. The 50% cytotoxic concentration (CC50 in μM) is defined as the concentration of test compound that reduces fluorescence of the mock-infected cells by 50%. The ratio of CC50 to EC50 is defined as the selectivity index (SI) and is an indication of the selectivity of the anti-HIV activity of the inhibitor. The ultimate monitoring of HIV-1 infection and cytotoxicity is done using a scanning microscope. Image analysis allows very sensitive detection of viral infection. Measurements are done before cell necrosis, which usually takes place about five days after infection, in particular measurements are performed three days after infection.
(§4) The columns IIIB, L100I, etc. in the table list the pEC50 values against various strains IIIB, L100I, etc.

The test system of data set [1] is HIV mutant strain L100I + K103N. Kind of data set: microbe, parasite or virus in culture. Type of data set: cell-based, HIV-1. As to conditions: MT4 LTR-EGFP cells, measured three days after infection; for EC50: Human immunodeficiency virus 1, 72 h, read-out: L100I + K103N (pEC50), strain L100I + K103N (converted); for L100I + K103N (pEC50): strain L100I + K103N. As for the experimental part: as §1, §2, §3, §4

Data set [2] has as its system HIV mutant strain K103N + Y181C. Kind of data set: microbe, parasite or virus in culture. It is filed as cell-based, HIV-1. As to conditions: MT4 LTR-EGFP cells, measured three days after infection; for EC50: Human immunodeficiency virus 1, 72 h, read-out: K103N + Y181C (pEC50), strain K103N + Y181C (converted); for K103N + Y181C (pEC50): strain K103N + Y181C. As for the experimental part: as §1, §2, §3, §4

Data set [3] relates to HIV strain MDR (mutations L100I, K103N, Y181C, E138G, V1791, L2214F, V278V/I and A327A/V in HIV reverse transcriptase). Kind of data set: microbe, parasite or virus in culture. Type of data set: cell-based, HIV-1. As to conditions: MT4 LTR-EGFP cells, measured three days after infection; for EC50: Human immunodeficiency virus 1, 72 h, read-out: MDR (pEC50), MDR strain (converted); for MDR (pEC50): MDR strain. The method, then: as §1, §2, §3, §4
“MDR” refers to a strain that contains mutations L100I, K103N, Y181C, E138G, V1791, L2214F, V278V/I and A327A/V in HIV reverse transcriptase.

For data set [4], the system named is wild type HIV strain IIIB. Kind of data set: Cellular anti-HIV assay in MT4 LTR-EGFP cells (GFP fluorescence), strain IIIB; cytotoxicity in mock-infected MT4 CMV-EGFP cells for the selectivity index. Type of data set: cell-based, HIV-1. As to conditions: for EC50: read-out: IIIB (pEC50) (converted). The method, then:
as §1, §2
Analogously, MT4 cells are engineered with GFP and the constitutional cytomegalovirus (CMV) promotor. This cell line is designated MT4 CMV-EGFP, and can be used for the in vitro evaluation of cytotoxicity of investigational compounds. In this cell line, GFP levels are comparably to those of infected MT4 LTR-EGFP cells. Cytotoxic investigational compounds reduce GFP levels of mock-infected MT4 CMV-EGFP cells.
as §3, §4
Strain IIIB is wild type HIV strain.

[5] abbreviates: Human immunodeficiency virus 1, IIIB, 72 h, wild type HIV strain IIIB, MT4 LTR-EGFP cells, measured three days after infection.
Where [6] appears, read: wild type HIV strain IIIB, MT4 LTR-EGFP cells, measured three days after infection.

One may read the melting point as the temperature, or range, at which the solid turns liquid. The molecule `Cc1cc(/C=C/C#N)cc(C)c1Nc1nc(Nc2ccc(C#N)cc2)ncc1C(O)c1ccccn1` (centres unmarked) [Compound 2] yielded a melting point of 244 °C. Also, the EC50 with HIV mutant strain Y181C is 8.51 nM. The EC50 in data set [1] was 3.47 nM. Also, the EC50 in data set [2] was 3.24 nM. In data set [3], the EC50 is 813 nM. In data set [4] (Human immunodeficiency virus 1, 72 h, wild type HIV strain IIIB, MT4 LTR-EGFP cells, measured three days after infection), the EC50 is 3.47 nM.
For the molecule `Cc1cc(/C=C/C#N)cc(C)c1Nc1nc(Nc2ccc(C#N)cc2)ncc1C(O)c1cccnc1` (centres unmarked) [Compound 4], the EC50 with HIV mutant strain Y181C is 5.37 nM; in data set [1], 3.47 nM; in data set [2], 5.75 nM; in data set [3] it was 355 nM; in data set [4] (setting [5]), 1.78 nM.
Taken in the same sequence, the figures for `COc1ccccc1C(O)c1cnc(Nc2ccc(C#N)cc2)nc1Nc1c(C)cc(/C=C/C#N)cc1C` (centres unmarked) [Compound 5] were 8.51 nM, 8.51 nM, 18.6 nM, 646 nM and 4.07 nM.
For the molecule `Cc1csc(CC(O)c2cnc(Nc3ccc(C#N)cc3)nc2Nc2c(C)cc(/C=C/C#N)cc2C)n1` (centres unmarked) [Compound 6], the EC50 is 24.5 nM with HIV mutant strain Y181C; 18.6 nM in data set [1]; 95.5 nM in data set [2]; 2240 nM in data set [3]; 3.72 nM in data set [4] (setting [5]).
For the molecule `Cc1cnc(C(O)c2cnc(Nc3ccc(C#N)cc3)nc2Nc2c(C)cc(/C=C/C#N)cc2C)s1` (centres unmarked) [Compound 7], the EC50 in the data set with HIV mutant strain Y181C is 21.4 nM; in data set [1] it was 14.8 nM; in data set [2], 47.9 nM; in data set [3] it was 1620 nM; in data set [4] (setting [5]), 11.5 nM.
Taken in the same sequence, the figures for `Cc1csc(C(O)c2cnc(Nc3ccc(C#N)cc3)nc2Nc2c(C)cc(/C=C/C#N)cc2C)n1` (centres unmarked) [Compound 8] were 14.5 nM, 4.27 nM, 9.55 nM, 209 nM and 3.89 nM.
Taken in the same sequence, the figures for `Cc1cc(/C=C/C#N)cc(C)c1Nc1nc(Nc2ccc(C#N)cc2)ncc1C(O)C1CCCC1` (centres unmarked) [Compound 9] were 245 nM, 158 nM, 759 nM, 6610 nM and 17 nM.
Taken in the same sequence, the figures for `Cc1cc(/C=C/C#N)cc(C)c1Nc1nc(Nc2ccc(C#N)cc2)ncc1C(O)c1cncs1` (centres unmarked) [Compound 10] were 3.8 nM, 2.63 nM, 4.07 nM, 145 nM and 3.02 nM.
`Cc1cc(/C=C/C#N)cc(C)c1Nc1nc(Nc2ccc(C#N)cc2)ncc1C(O)c1nccn1C` (centres unmarked) [Compound 11]: the EC50 with HIV mutant strain Y181C was 6.03 nM; in data set [1] it was 3.72 nM; in data set [2], 7.24 nM; in data set [3] it was 832 nM; in data set [4] (setting [5]) it was 2.57 nM.
Turning to `C=CC(O)c1cnc(Nc2ccc(C#N)cc2)nc1Nc1c(C)cc(/C=C/C#N)cc1C` (centres unmarked) [Compound 12], the “Y181C (pEC50)” value in the data set with HIV mutant strain Y181C is 8.44. Further, the “L100I + K103N (pEC50)” value in data set [1] was found to be 8.86. Besides, the “K103N + Y181C (pEC50)” value in data set [2] turned out to be 8.38. In addition, the “MDR (pEC50)” value in data set [3] is 6.37. In addition, the “IIIB (pEC50)” value in data set [4] (setting [6]) was 8.91.
Turning to `Cc1cc(/C=C/C#N)cc(C)c1Nc1nc(Nc2ccc(C#N)cc2)ncc1C(O)C#Cc1cncn1C` (centres unmarked) [Compound 13], the EC50 is 19.5 nM in the data set on HIV mutant strain Y181C; 63.1 nM in data set [1]; 38.9 nM in data set [2]; 537 nM in data set [3]; 3.63 nM in data set [4] (setting [5]).
The like results for `Cc1cc(/C=C/C#N)cc(C)c1Nc1nc(Nc2ccc(C#N)cc2)ncc1C(O)c1nc2ccccc2s1` (centres unmarked) [Compound 14] were, in that order, 75.9 nM, 70.8 nM, 100 nM, 6310 nM and 12.6 nM.
The like results for `Cc1cc(/C=C/C#N)cc(C)c1Nc1nc(Nc2ccc(C#N)cc2)ncc1C(O)c1scnc1Br` (centres unmarked) [Compound 15] were, in that order, 17.8 nM, 7.76 nM, 18.2 nM, 468 nM and 6.76 nM.
Taken in the same sequence, the figures for `Cc1cc(/C=C/C#N)cc(C)c1Nc1nc(Nc2ccc(C#N)cc2)ncc1C(O)c1cn2ccnc2s1` (centres unmarked) [Compound 16] were 89.1 nM, 63.1 nM, 95.5 nM, 7240 nM and 25.1 nM.
For the molecule `Cc1cc(/C=C/C#N)cc(C)c1Nc1nc(Nc2ccc(C#N)cc2)ncc1C(O)c1csc2nc(Cl)cn12` (centres unmarked) [Compound 18], the EC50 is 79.4 nM in the data set on HIV mutant strain Y181C; 30.9 nM in data set [1]; 107 nM in data set [2]; 2190 nM in data set [3]; 18.2 nM in data set [4] (setting [5]).
As to `Cc1cc(/C=C/C#N)cc(C)c1Nc1nc(Nc2ccc(C#N)cc2)ncc1C(O)(c1nccs1)c1nccs1` [Compound 21], the EC50 was 56.2 nM in the data set on HIV mutant strain Y181C; 23.4 nM in data set [1]; 85.1 nM in data set [2]; 3310 nM in data set [3]; 18.2 nM in data set [4] (setting [5]).
In the case of `CCC(O)(c1nccs1)c1cnc(Nc2ccc(C#N)cc2)nc1Nc1c(C)cc(/C=C/C#N)cc1C` (centres unmarked) [Compound 22], in the data set on HIV mutant strain Y181C, the “Y181C (pEC50)” value is on record as 7.21. The “L100I + K103N (pEC50)” value in data set [1] is listed as 7.51. For the same molecule, the “K103N + Y181C (pEC50)” value in data set [2] is listed as 7.03. In data set [3], the “MDR (pEC50)” value worked out at 5.66. In addition, the “IIIB (pEC50)” value in data set [4] (setting [6]) worked out at 7.75.
As to `Cc1cc(/C=C/C#N)cc(C)c1Nc1nc(Nc2ccc(C#N)cc2)ncc1C(C)(O)c1nccs1` (centres unmarked) [Compound 25], in the data set on HIV mutant strain Y181C, the “Y181C (pEC50)” value is 7.74. In addition, in data set [1], the “L100I + K103N (pEC50)” value is reported as 7.85. For the same molecule, in data set [2], the “K103N + Y181C (pEC50)” value is given as 7.62. In addition, in data set [3], the “MDR (pEC50)” value came out at 6.40. Moreover, the “IIIB (pEC50)” value in data set [4] (setting [6]) was determined as 7.75.
Taken in the same sequence, the figures for `Cc1cc(/C=C/C#N)cc(C)c1Nc1nc(Nc2ccc(C#N)cc2)ncc1C(O)(c1nccs1)C(C)C` (centres unmarked) [Compound 26] were 6.66, 6.33, 6.24, 5.12 and 7.00.
`C=CC(O)(c1nccs1)c1cnc(Nc2ccc(C#N)cc2)nc1Nc1c(C)cc(/C=C/C#N)cc1C` (centres unmarked) [Compound 27]: the “Y181C (pEC50)” value with HIV mutant strain Y181C came out at 7.70. Further, the “L100I + K103N (pEC50)” value in data set [1] was 7.84. For the same molecule, in data set [2], the “K103N + Y181C (pEC50)” value is given as 7.54. In addition, the “MDR (pEC50)” value in data set [3] came to 6.27. Also, the “IIIB (pEC50)” value in data set [4] stood at 7.70.
